Results reported in patent US20250082720A1, “NEW PEPTIDE AND USES THEREOF” (Neo Cremar Co., Ltd., priority 2021, published 2025).

What was measured:
C2C12 cells [1] = assay: Myodifferentiation: root canal formation and fusion index (Giemsa staining); format: cell-based, mouse; details: for root canal formation compared to untreated cells: C2C12, differentiation medium; for increase in fusion index compared to untreated cells: C2C12, differentiation medium with peptide
Procedure: When C2C12 cells were 70% grown, media were replaced with myodifferentiation medium added with MSTN protein (1 ng), Ac-MIF2-NH2 (1000 nM), and Ac-MIF2-NH2 (1000 nM)+MSTN protein (1 ng) from proliferation medium, followed by culture for 3 days.
When the cells grew more than 70% for differentiation of myoblasts into myocytes, they were cultured for 3 days by replacing with a differentiation medium (DMEM+2% FBS+1% P/S). The medium was replaced once daily, and the cells were cultured at 37° C.
The cell medium was removed, and the cells were washed with PBS. After washing, a methanol: PBS reagent in a 1:1 volume ratio was treated, followed by fixation for 2 minutes. Additionally, after a methanol: PBS reagent in a 2:1 volume ratio was added, fixation was followed for additional 2 minutes. After 2 minutes, 0.04% Giemsa reagent was added, and then the cells were left for 30 minutes, washed with PBS after 30 minutes, and observed under a microscope, with 3 photographs taken for each cell (300×). In the photographs taken, the number of fused nuclei in the root canal cells was counted, the number of nuclei of total cells was counted, and the number of fused nuclei was divided by the number of nuclei of the total cells to obtain the % value.

C2C12 cells [2] = assay: C2C12 myoblast proliferation (MTT method); format: cell-based, mouse; details: for increase in cell proliferation compared to cells without peptide treatment: C2C12, peptide 1000 nM, 1 day, MTT, FIG. 4
Procedure: C2C12 cells, a mouse myoblast line, were cultured in Dulbecco's Modified Eagle's Medium (DMEM)+10% fetal bovine serum (FBS)+1% penicillin/streptomycin (P/S). To validate the effect of MIF peptide, C2C12 cells (2×10^3 cells/ml) were placed in a 12 well cell culture dish and attached for 24 hours, and MIF2 or Ac-MIF2-NH2 peptide (1000 nM) was treated for 1 day to observe cell proliferation by MTT method. The medium was replaced every 2 days, and the cells were cultured at 37° C.
(§1) To validate cell proliferation, the culture medium of the cells was removed, the cells were washed with DMEM, 500 μl of MTT reagent (0.5 mg/ml) dissolved in phosphate buffered saline (PBS) was added to each well, and the cells were left at 37° C. for 1 hour. The reaction solution was removed, and 1000 μl of DMSO was added to each well. Purple formazan crystals were completely dissolved in DMSO, and the absorbance was measured at 540 nm.

C2C12 cells [3] = assay: Scratch experiment, degree of cell recovery; format: cell-based, mouse; details: C2C12 100% grown, 1000 nM peptide, 1 day
Procedure: When the C2C12 cells were 100% grown, cells were scratches on the surface, treated with 1000 nM MIF2 or Ac-MIF2-NH2 peptides, and cultured for 1 day, followed by observation for a degree of cell recovery.

C2C12 cells [4] = assay: Expression of myodifferentiation-related factors (real-time PCR, Western blot, immunocytochemistry); format: cell-based, mouse
Procedure: (§2) After adding 1 ml of TRIzol™ reagent, the cells were crushed using a sonicator. After centrifugation of the crushed sample (12,000 rpm, 10 min, 4° C.), the supernatant was transferred to a new tube, added with 200 μl of chloroform, and left at room temperature for 10 minutes. After 10 minutes, centrifugation (12,000 rpm, 10 min, 4° C.) was performed, yielded a transparent supernatant. Next, 500 μl of isopropanol was added, the mixture was left for 10 minutes, and centrifugation was performed to obtain RNA pellets. After washing by adding 70% ethanol (distilled water treated with ethanol+diethylpyrocarbonate (hereinafter referred to as DEPC)) to the RNA pellets, complete removal and drying were followed. The dried transparent RNA was added with DEPC-treated distilled water and then stored at −80° C. Total RNA volume was measured by nanodrop, and the 18s and 28s bands were detected in 1.2% agarose gel. cDNA was synthesized with 2 μg of total RNA, random hexamer primers, and reverse transcriptase (25° C.: 10 min, 37° C.: 120 min, 85° C.: 5 min).
Real-time PCR (RT-PCR) was performed for detecting gene expression. For observation of real-time gene expression, gene expression was analyzed using the Power SYBR Green PCR Master Mix, which includes fluorescent materials of SYBR green (7500 Real-time PCR system). The PCR primer was designed with Primer 3 software (http://frodo.wi.mit.edu) according to the nucleotide sequence secured from NCBI GenBank. PCR was performed 40 times at 95° C. for 10 minutes, again at 95° C. for 33 seconds, at gene primer temperature (tm) for 33 seconds, and at 72° C. for 33 seconds. Gene expression values were analyzed through the analysis of c(t) values obtained through real-time PCR analysis (fold change 2-ΔΔCt formula). Setting the gene expression value of the untreated cells to 1, the gene expression value of the treated cells was calculated. In the analysis of gene c(t) values, normalization was conducted with the glyceraldehyde-3-phosphate dehydrogenase (GAPDH).
The medium of cultured C2C12 cells was removed and washed once with PBS. The washed cells were treated with 4% formaldehyde (Sigma), fixed for 15 minutes, then washed using PBS, added with 0.2% trypton X-100 (Sigma), and left for 5 minutes. After washing again using PBS, adding 1% normal goat serum, and leaving for 30 minutes, the primary antibody (MYOD, myogenin (MYOG): myosin light chain (MYL2); 1:50) was added to carry out a reaction at 4° C. for 14 hours. The antibodies were removed, washing was performed 3 times with PBS for 10 minutes, and then the cells were left with secondary antibody (Alexa Fluor 488 goat anti-Mouse & rabbit SFX kit t) for 1 hour. After 1 hour, the antibodies were removed, washing was performed with PBS for 10 minutes, the nuclei were stained with 4′,6-diamidino-2-phenylindol (DAPI), and the expression of the proteins was observed using fluorescence microscopy.
(1) The medium of cultured C2C12 cells was removed, followed by washing with PBS. After adding LIPA buffer and protease inhibitor to the washed cells, the proteins included in the supernatant were collected after centrifugation for 10 minutes at 12000 rpm. 40 μg of the extracted proteins were subjected to electrophoresis in 8 to 10% acrylamide gel and then transferred to a polyvinylidene fluoride (PVDF) membrane (Milipore). These were blocked with 3% skim milk or bovine serum albumin (BSA) at room temperature for 1 hour. Afterwards, primary antibody diluted in 1% skim milk or BSA (Pax7; 1:500, MYOD; 1:500, MYOG; 1:400, MYL2; 1:1000, MYH; 1:500, MSTN; 1:1000, β-actin; 1:1000, MuRF1; 1:400, and Atrogin; 1:1:400) was added and reacted at 4° C. for over 16 hours. After 16 hours, cells were washed three times with TBST (Tris-buffered saline with Tween 20) and reacted with secondary antibody with horseradish peroxidase (HRP) conjugated at room temperature for 1 hour. […]

3T3L1 cells [5] = assay: Expression of FMOD, MSTN and lipogenesis-related factors in 3T3L1 cells (real-time PCR, Western blot); format: cell-based, mouse; details: 3T3L1, compared to untreated cells, FIG. 13C
Procedure: as §2, with “After washing by adding 70% ethanol (distilled water treated with ethanol+diethylpyrocarbonate (hereinafter referred to as DEPC)) to the RNA pellets, complete removal and drying were followed. The dried transparent RNA was added with DEPC-treated distilled water and then stored at −80° C.” left out
Real-time PCR (RT-PCR) was performed for detecting gene expression. For observation of real-time gene expression, gene expression was analyzed using the Power SYBR Green PCR Master Mix, which includes fluorescent materials of SYBR green (7500 Real-time PCR system). […] Gene expression values were analyzed through the analysis of c(t) values obtained through real-time PCR analysis (fold change 2-ΔΔCt formula). Setting the gene expression value of the untreated cells to 1, the gene expression value of the treated cells was calculated. […]

3T3L1 cells [6] = assay: Adipodifferentiation of 3T3L1 cells (Oil Red O staining); format: cell-based, mouse; details: 3T3L1, adipocyte differentiation medium, 4 days, FIG. 13B
Procedure: For differentiation of 3T3L1 cells into adipocytes, when the cells grew about 100% or more, they were replaced with differentiation medium (DMEM+10% FBS+1% P/S+10 μg/ml insulin+1 μM dexametazone+0.5 μM IBMX (3-isobutyl-1-methylxanthine)) and cultured for 2 days. After 2 days, MIF peptide was treated in a medium including 10 μg/ml insulin to induce cell differentiation.
3T3L1 cells were treated with peptides and differentiated for 4 days, then the medium was removed, and the cells were washed with normal saline, treated with 10% formaldehyde, and left for 10 minutes. After 10 minutes, Oil-red O staining agents (6 ([…] Oil-red O reagent+1 ml 100% isopropanol): 4 (distilled water)) were treated and left for 1 hour. After 1 hour, cells were washed with normal saline and then observed under a microscope. To measure the Oil-red O stained in the intracellularly differentiated cells, 100% isopropanol was added and collected, followed by measurement at 510 nm.

[7] = system: gastrocnemius muscle of C57BL/6 mice; assay: Myoregeneration after Ac-MIF2-NH2 injection and cardiotoxin (CTX) muscle injury; format: in vivo, mouse
Description: The male C57BL/6 mice were purchased from Dae Han Bio Link Co., Ltd., four of which per cage were kept in a temperature-controlled room with a 12-hour light cycle. The animals were fed with a standard rodent diet containing 4.0% (wt/wt) total fat (Rodent NIH-31 Open Formula Auto; Zeigler Bros., Inc., Gardners, PA, USA) and water. All experiments involving animals complied with the guidelines (YUMC-AEC2015-006) issued by the Animal Control Committee of Youngnam University's Animal Research Institute. The MSTN knock-out mouse was provided by a laboratory at Seoul National University. Normal, MSTN+/−(heterozygous), and MSTN−/−(homozygous) adipose tissues were fixed by collecting from 6-week-old mice and stored at −80° C. until required for analysis.
Muscle tissues containing paraffin was subjected to deparaffinization with xylene and ethanol and hydration, respectively, and the tissue was soaked in 0.3% hydrogen peroxide water (H2O2)/methanol for 15 minutes to stop endogenous peroxidase activity. Then, tissues were stained with hematoxylin/eosin for morphological observation or reacted with 1% normal goat serum at room temperature for 1 hour to block a reaction with non-specific antibodies, followed by a reaction with the primary antibody (1:50) at 4° C. for over 16 hours. After 16 hours, washing was performed 3 times with PBS, followed by a reaction with secondary antibody (1:100) with HRP conjugated at room temperature for 1 hour. Horse radish peroxidase-conjugated streptavidin was added to detect the expression of the protein, followed by observation under a microscope.
In order to observe the myoregeneration effect following MIF peptide injection, mice were injected with Ac-MIF2-NH2 peptide and injected/uninjected with cardiotoxin (hereinafter referred to as CTX) into the muscle, followed by observation of the morphology and regeneration of the muscle. A day after C57BL/6 mice were injected with Ac-MIF2-NH2 peptide (1.125 mM), […] cardiotoxin was injected into the gastrocnemius. Muscle tissues were sampled 7 days after CTX injection.
Paraffin-embedded muscle sections were deparaffinized using xylene, rehydrated using a concentration gradient of ethanol, stained with hematoxylin and eosin, observed under an optical microscope, magnified at 400× scale, and photographed, followed by measurement of the diameter of muscle fibers using Image J software.

3T3L1 cells [8] = assay: 3T3L1 cell proliferation (MTT method); format: cell-based, mouse; details: 3T3L1, peptide 1000 nM, 2 days, FIG. 13A
Procedure: 3T3L1 cells, mouse fibroblasts, were cultured in Dulbecco's Modified Eagle's Medium (DMEM)+10% fetal bovine serum (FBS)+1% penicillin/streptomycin (P/S). To validate the effect of MIF peptide, 3T3L1 cells (2×10^3 cells/ml) were placed in a 12-well cell culture dish, attached for 24 hours, and treated with MIF peptide (1000 nM) for 2 days, followed by observation of cell proliferation by MTT method. The medium was replaced once every 2 days, and the cells were cultured at 37° C.
as §1

[9] = C2C12 differentiation, versus control
[10] = C2C12 myodifferentiation, FIG. 6
[11] = C2C12 myodifferentiation, FIG. 8
[12] = injected muscle, 7 days after CTX, FIG. 10B

MSTN protein: myostatin protein that inhibits the proliferation and differentiation of myoblasts [reference compound]
differentiation of cells compared to untreated cells (C2C12 cells [1]; C2C12, MSTN protein in differentiation medium, FIG. 3): reduced
root canal formation compared to untreated cells (C2C12 cells [1]; 3 days): reduced
proliferation of cells compared to untreated cells (C2C12 cells [2]; C2C12, MSTN protein in proliferation medium, FIG. 3): reduced

VDFEAGDWFW [MIF2]
increase in fusion index compared to untreated cells (C2C12 cells [1]; 3 days): 12%
increase in scratch recovery degree compared to untreated cells (C2C12 cells [3]): 22%
expression of MSTN mRNA and proteins (C2C12 cells [4]; [9]): did not show any significant differences
mRNA and protein expression of MYOD, MYOG, MYL2, and MYH (C2C12 cells [4]; [9]): increased
expression of ACVRIIB mRNA (C2C12 cells [4]; [10]): decreased
expression of MuRF1 and ACVRIIB proteins (C2C12 cells [4]; [10]): decreased
increase in cell proliferation compared to cells without peptide treatment (C2C12 cells [2]): 6%

Ac-VDFEAGDWFW-NH2 [Ac-MIF2-NH2, MIF2 peptide with acetylated N-terminus and amidated C-terminus]
expression of FMOD; MSTN; and lipogenesis-related mRNAs and proteins (CD36, CD163, and PPARγ) (3T3L1 cells [5]): decreased
increase in fusion index compared to untreated cells (C2C12 cells [1]; 3 days): 14%
root canal formation compared to untreated cells (C2C12 cells [1]; 3 days): increased
fusion index compared to untreated cells (C2C12 cells [1]; C2C12, myodifferentiation medium, 3 days, FIG. 9): increased
decrease in fat accumulation (Oil-red O intensity) compared to cells without peptide treatment (3T3L1 cells [6]): 9%
increase in scratch recovery degree compared to untreated cells (C2C12 cells [3]): 26%
MSTN protein expression (C2C12 cells [4]; [9]): reduced
mRNA and protein expression of MYOD, MYOG, MYL2, and MYH (C2C12 cells [4]; [9]): increased
ACVRIIB protein expression (C2C12 cells [4]; [11]): reduced
gene expression of Atrogin1 and MuRF1 (C2C12 cells [4]; [11]): reduced
increase in cell proliferation compared to cells without peptide treatment (C2C12 cells [2]): 33%
muscle weight compared to muscle without injection ([7]; 7 days after CTX injection): no significant difference
diameter of the muscle fibers compared to muscles without injection ([7]; 7 days after CTX, FIG. 10C): increased
muscle weight ([7]; CTX + Ac-MIF2-NH2, 7 days after CTX injection): 0.147 ± 0.163 g
mRNA expression of Pax7, MYOD, MYOG, MYL2, and MYH in muscle ([7]; injected muscle, 7 days after CTX, FIG. 10A): significantly increased
MSTN protein expression in muscle [7, 12]: decreased
protein expression of Pax7, MYOD, MYOG, MYL2, and MYH in muscle [7, 12]: increased
decrease in proliferation compared to cells without peptide treatment (3T3L1 cells [8]): 10%
